From US10526292B2 (Parion Sciences, Inc., priority 2012, dated 2020)

Tests used:
[1] = In vitro drug metabolism: hepatocyte stability, rat; assay type: in vitro ADME; settings: rat hepatocyte suspension, 10 μM, 37° C., up to six hours
Experimental: (§1) The metabolic stability of 9 and 15 was assessed in plasma (rat, rabbit, dog and human) and hepatocytes (rat and dog). Compounds were added either directly to plasma or to hepatocyte suspensions at a final concentration of 2.5 or 10 μM, respectively, and incubated at 37° C. for up to six hours. Aliquots were removed at various time points and quenched. The amount of parent compound was quantified via UPLC-fluorescence analysis. The amount of parent compound remaining was calculated based on the total peak area at the time of sampling divided by the total peak area at initiation.

[2] = Confocal microscopy assay of amiloride congener transport; assay type: in vitro ADME; settings: applied to apical (epithelial) surface of mouse corneas, one hour at 37 C
Source text: Serial x-y images were obtained one hour post-drug addition by confocal microsopy.

[3] = In vitro drug metabolism: plasma stability, rabbit; assay type: in vitro ADME; settings: 2.5 μM, 37° C., up to six hours
Experimental: as §1

ExLac rats = assay: Tear volume in rat model of dry eye disease (lacrimal gland excision, ExLac Model); assay type: in vivo, Sprague Dawley rats; settings: 5 μl test article solution per eye, tear volume by ZoneQuick thread over 6 h
Experimental: The effects of compounds on tear volume was assessed in a rat model of dry eye disease in which Sprague Dawley rats undergo surgical lacrimal gland excision (ExLac Model) to reduce normal tear volume. The lacrimal excision reduces normal tear volume by ˜50% (Table 2).
Both the ipsilateral and contralateral eyes were dosed with 5 μl of test article solution. Tear production was measured using the ZoneQuick cotton thread with impregnated phenol red dye. The folded end of the thread was held in the lateral-ventral conjunctival cul-de-sac for 10 seconds. The length of tear wicking onto the thread was determined by measuring the length of the thread that changes color from yellow to red. Use of a stereomicroscope was assist in the accurate measurement (recorded in millimeters) of the wicking/color change. Tear volume was assessed pre-dose, and 15, 30, 60, 120, and 360 minute post-dose. For reference, the effect of a saline vehicle is shown for ExLac rats and normal (no lacrimal excision surgery) rats.

[4] = In vitro drug metabolism: summary in words for plasma and hepatocytes among the species evaluated; assay type: in vitro ADME; settings: plasma (rat, rabbit, dog, human) and hepatocytes (rat, dog)
Experimental: as §1

[5] = In vitro drug metabolism: hepatocyte stability, dog; assay type: in vitro ADME; settings: dog hepatocyte suspension, 10 μM, 37° C., up to six hours
Experimental: as §1

[6] = In vitro drug metabolism: plasma stability, rat; assay type: in vitro ADME; settings: 2.5 μM, 37° C., up to six hours
Experimental: as §1

[7] = In vitro drug metabolism: plasma stability, human; assay type: in vitro ADME; settings: 2.5 μM, 37° C., up to six hours
Experimental: as §1

[8] = In vitro drug metabolism: plasma stability, dog; assay type: in vitro ADME; settings: 2.5 μM, 37° C., up to six hours
Experimental: as §1

Muc5B = Muc5B (Homo sapiens, UniProt Q9HC84); settings: in vitro; cited from earlier work

SMILES | Hepatocyte Stability (amount of parent compound remaining) [1] [%] | Penetration of the cornea (confocal x-z image, FIG. 16) [2] | Plasma Stability (amount of parent compound remaining) [3] [%] | 6 h Ocular Hydration (AUC0-6) (ExLac rats) | Stability towards metabolic hydrolysis in plasma and hepatocytes [4] | Hepatocyte Stability (amount of parent compound remaining) [5] [%] | Plasma Stability (amount of parent compound remaining) [6] [%] | Plasma Stability (amount of parent compound remaining) [7] [%] | Plasma Stability (amount of parent compound remaining) [8] [%] | Concentration required to fully reduce Muc5B (Muc5B) [mM]
N=C(N)NCCCC[C@@H](N)C(=O)NCCCN(CCCNC(=O)[C@H](N)CCCCNC(=N)N)CCOc1ccc(CCCCNC(=N)NC(=O)c2nc(Cl)c(N)nc2N)cc1 [Compound 9, (2R,2′R)—N,N′-(3,3′-(2-(4-(4-(3-(3,5-diamino-6-chloropyrazine-2-carbonyl)guanidino)butyl)phenoxy)ethylazanediyl)bis(propane-3,1-diyl))bis(2-amino-6-guanidinohexanamide)] | 100 | remains associated with the apical (epithelial) surface | 89 | 50.2 | stable towards metabolic hydrolysis | 94 | 87 | 101 | 103 | –
CC(=O)N[C@@H](CS)C(=O)O [NAC, N-acetyl cysteine] | – | – | – | – | – | – | – | – | – | 200
N=C(N)NCCCC[C@H](N)C(=O)NCCCN(CCCNC(=O)[C@@H](N)CCCCNC(=N)N)CCOc1ccc(CCCCNC(=N)NC(=O)c2nc(Cl)c(N)nc2N)cc1 [Compound 15, (2S,2′S)—N,N′-(3,3′-(2-(4-(4-(3-(3,5-diamino-6-chloropyrazine-2-carbonyl)guanidino)butyl)phenoxy)ethylazanediyl)bis(propane-3,1-diyl))bis(2-amino-6-guanidinohexanamide)] | 14 | – | 8.7 | 50.2 | rapidly metabolized | 19 | 10 | 7.6 | 18 | –
